Experimental data published in ChEMBL document CHEMBL4507281, “Data for DCP probe BI-4394” (2021).

Legend:
[1] = biological target: Serine/threonine-protein kinase DCLK3 (Homo sapiens) (UniProt Q9C098); conditions: Compound concentration 100.0 nM
[2] = biological target: Tyrosine-protein kinase ABL1 (Homo sapiens) (UniProt P00519); conditions: Compound concentration 100.0 nM
[3] = biological target: Macrophage colony-stimulating factor 1 receptor (Homo sapiens) (UniProt P07333); conditions: Compound concentration 100.0 nM
[4] = biological target: Serine/threonine-protein kinase TAO3 (Homo sapiens) (UniProt Q9H2K8); conditions: Compound concentration 100.0 nM
[5] = test system: Epidermal growth factor receptor (Homo sapiens), P00533 [L858R,T790M]; conditions: Compound concentration 100.0 nM
[6] = biological target: Mitogen-activated protein kinase 4 (Homo sapiens) (UniProt P31152); conditions: Compound concentration 100.0 nM
[7] = biological target: Phosphatidylinositol 3-kinase catalytic subunit type 3 (Homo sapiens) (UniProt Q8NEB9); conditions: Compound concentration 100.0 nM
[8] = biological target: Death-associated protein kinase 1 (Homo sapiens) (UniProt P53355); conditions: Compound concentration 100.0 nM
[9] = biological target: Rho-associated protein kinase 1 (Homo sapiens) (UniProt Q13464); conditions: Compound concentration 100.0 nM
[10] = biological target: Mitogen-activated protein kinase kinase kinase kinase 3 (Homo sapiens) (UniProt Q8IVH8); conditions: Compound concentration 100.0 nM
[11] = test system: Proto-oncogene tyrosine-protein kinase receptor Ret (Homo sapiens), P07949 [V804L]; conditions: Compound concentration 100.0 nM
[12] = biological target: Mitogen-activated protein kinase kinase kinase 15 (Homo sapiens) (UniProt Q6ZN16); conditions: Compound concentration 100.0 nM
[13] = biological target: Inhibitor of nuclear factor kappa-B kinase subunit alpha (Homo sapiens) (UniProt O15111); conditions: Compound concentration 100.0 nM
[14] = biological target: D(3) dopamine receptor (Homo sapiens) (UniProt P35462); conditions: Compound concentration 10.0 uM
[15] = biological target: Calcium/calmodulin-dependent protein kinase type II subunit gamma (Homo sapiens) (UniProt Q13555); conditions: Compound concentration 100.0 nM
[16] = biological target: Tyrosine-protein kinase JAK2 (Homo sapiens) (UniProt O60674); conditions: Compound concentration 100.0 nM
[17] = test system: Phosphatidylinositol 4,5-bisphosphate 3-kinase catalytic subunit alpha isoform (Homo sapiens), P42336 [H1047Y]; conditions: Compound concentration 100.0 nM
[18] = biological target: Alpha-2B adrenergic receptor (Homo sapiens) (UniProt P18089); conditions: Compound concentration 10.0 uM
[19] = biological target: Tyrosine-protein kinase Fes/Fps (Homo sapiens) (UniProt P07332); conditions: Compound concentration 100.0 nM
[20] = biological target: MAP kinase-activated protein kinase 5 (Homo sapiens) (UniProt Q8IW41); conditions: Compound concentration 100.0 nM
[21] = biological target: Dual specificity mitogen-activated protein kinase kinase 7 (Homo sapiens) (UniProt O14733); conditions: Compound concentration 100.0 nM
[22] = biological target: Ephrin type-B receptor 3 (Homo sapiens) (UniProt P54753); conditions: Compound concentration 100.0 nM
[23] = biological target: Cyclin-dependent kinase 2 (Homo sapiens) (UniProt P24941); conditions: Compound concentration 100.0 nM
[24] = biological target: Dual specificity mitogen-activated protein kinase kinase 5 (Homo sapiens) (UniProt Q13163); conditions: Compound concentration 100.0 nM
[25] = biological target: Serine/threonine-protein kinase WNK1 (Homo sapiens) (UniProt Q9H4A3); conditions: Compound concentration 100.0 nM
[26] = biological target: Non-receptor tyrosine-protein kinase TYK2 (Homo sapiens) (UniProt P29597); conditions: Compound concentration 100.0 nM
[27] = biological target: Muscarinic acetylcholine receptor M5 (Homo sapiens) (UniProt P08912); conditions: Compound concentration 10.0 uM
[28] = biological target: BMP-2-inducible protein kinase (Homo sapiens) (UniProt Q9NSY1); conditions: Compound concentration 100.0 nM
[29] = biological target: Calcium/calmodulin-dependent protein kinase type 1B (Homo sapiens) (UniProt Q6P2M8); conditions: Compound concentration 100.0 nM
[30] = test system: Tyrosine-protein kinase ABL1 (Homo sapiens), P00519 [M351T]; conditions: Compound concentration 100.0 nM
[31] = biological target: MAP/microtubule affinity-regulating kinase 3 (Homo sapiens) (UniProt P27448); conditions: Compound concentration 100.0 nM
[32] = test system: Phosphatidylinositol 4,5-bisphosphate 3-kinase catalytic subunit alpha isoform (Homo sapiens), P42336 [E545A]; conditions: Compound concentration 100.0 nM
[33] = biological target: Ribosomal protein S6 kinase alpha-5 (Homo sapiens) (UniProt O75582); conditions: Compound concentration 100.0 nM
[34] = biological target: cGMP-dependent protein kinase 1 (Homo sapiens) (UniProt Q13976); conditions: Compound concentration 100.0 nM
[35] = biological target: Serine/threonine-protein kinase PAK 6 (Homo sapiens) (UniProt Q9NQU5); conditions: Compound concentration 100.0 nM
[36] = test system: Tyrosine-protein kinase ABL1 (Homo sapiens), P00519 [T315I]; conditions: Compound concentration 100.0 nM
[37] = biological target: Mitogen-activated protein kinase kinase kinase 11 (Homo sapiens) (UniProt Q16584); conditions: Compound concentration 100.0 nM
[38] = biological target: Tyrosine-protein kinase ABL2 (Homo sapiens) (UniProt P42684); conditions: Compound concentration 100.0 nM
[39] = biological target: Inhibitor of nuclear factor kappa-B kinase subunit epsilon (Homo sapiens) (UniProt Q14164); conditions: Compound concentration 100.0 nM
[40] = biological target: Proto-oncogene tyrosine-protein kinase ROS (Homo sapiens) (UniProt P08922); conditions: Compound concentration 100.0 nM
[41] = biological target: Cyclin-dependent kinase 16 (Homo sapiens) (UniProt Q00536); conditions: Compound concentration 100.0 nM
[42] = biological target: Serine/threonine-protein kinase D3 (Homo sapiens) (UniProt O94806); conditions: Compound concentration 100.0 nM
[43] = biological target: Fibroblast growth factor receptor 4 (Homo sapiens) (UniProt P22455); conditions: Compound concentration 100.0 nM
[44] = biological target: Histamine H1 receptor (Homo sapiens) (UniProt P35367); conditions: Compound concentration 10.0 uM
[45] = biological target: Serine/threonine-protein kinase ULK2 (Homo sapiens) (UniProt Q8IYT8); conditions: Compound concentration 100.0 nM

Chain of Inhibitor of nuclear factor kappa-B kinase subunit epsilon (Homo sapiens) (Q14164 whole entry): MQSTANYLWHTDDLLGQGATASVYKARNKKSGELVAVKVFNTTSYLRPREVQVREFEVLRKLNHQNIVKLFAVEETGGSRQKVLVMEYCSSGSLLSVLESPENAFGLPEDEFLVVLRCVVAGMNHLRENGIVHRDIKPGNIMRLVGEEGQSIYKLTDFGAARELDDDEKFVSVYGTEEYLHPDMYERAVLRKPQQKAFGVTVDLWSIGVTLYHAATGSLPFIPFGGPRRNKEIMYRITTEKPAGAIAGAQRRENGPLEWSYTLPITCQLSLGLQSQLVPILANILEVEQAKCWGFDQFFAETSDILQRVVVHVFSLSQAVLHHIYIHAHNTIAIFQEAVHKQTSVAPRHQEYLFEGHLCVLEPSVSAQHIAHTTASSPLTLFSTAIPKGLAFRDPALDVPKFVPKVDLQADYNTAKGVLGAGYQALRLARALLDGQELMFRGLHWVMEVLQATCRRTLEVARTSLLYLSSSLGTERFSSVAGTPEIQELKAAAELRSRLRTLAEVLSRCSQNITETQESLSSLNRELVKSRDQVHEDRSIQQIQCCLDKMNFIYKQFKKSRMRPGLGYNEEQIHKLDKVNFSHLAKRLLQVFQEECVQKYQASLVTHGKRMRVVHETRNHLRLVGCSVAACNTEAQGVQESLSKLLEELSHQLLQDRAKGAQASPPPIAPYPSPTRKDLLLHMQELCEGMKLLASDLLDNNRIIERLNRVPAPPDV
Chain of Ribosomal protein S6 kinase alpha-5 (Homo sapiens) (O75582 whole entry, looked up): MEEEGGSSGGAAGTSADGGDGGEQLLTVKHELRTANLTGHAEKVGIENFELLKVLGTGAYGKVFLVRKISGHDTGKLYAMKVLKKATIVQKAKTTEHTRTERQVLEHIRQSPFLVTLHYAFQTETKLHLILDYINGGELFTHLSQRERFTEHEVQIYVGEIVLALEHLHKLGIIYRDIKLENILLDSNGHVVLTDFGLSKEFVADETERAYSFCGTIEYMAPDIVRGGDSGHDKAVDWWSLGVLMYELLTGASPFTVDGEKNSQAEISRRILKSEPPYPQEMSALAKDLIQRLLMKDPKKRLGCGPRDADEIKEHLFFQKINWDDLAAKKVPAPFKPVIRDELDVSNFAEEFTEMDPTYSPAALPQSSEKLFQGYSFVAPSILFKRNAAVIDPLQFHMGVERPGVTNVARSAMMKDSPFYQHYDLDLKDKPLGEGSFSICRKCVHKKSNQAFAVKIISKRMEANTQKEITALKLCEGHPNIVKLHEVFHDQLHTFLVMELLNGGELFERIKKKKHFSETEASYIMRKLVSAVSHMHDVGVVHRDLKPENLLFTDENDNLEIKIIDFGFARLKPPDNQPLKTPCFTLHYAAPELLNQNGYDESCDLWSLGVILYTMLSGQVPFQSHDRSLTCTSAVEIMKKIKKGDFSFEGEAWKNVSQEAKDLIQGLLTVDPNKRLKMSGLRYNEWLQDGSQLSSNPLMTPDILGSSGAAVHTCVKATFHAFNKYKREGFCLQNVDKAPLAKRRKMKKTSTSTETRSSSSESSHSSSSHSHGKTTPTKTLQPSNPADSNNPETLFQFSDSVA
Chain of Muscarinic acetylcholine receptor M5 (Homo sapiens) (P08912 whole entry): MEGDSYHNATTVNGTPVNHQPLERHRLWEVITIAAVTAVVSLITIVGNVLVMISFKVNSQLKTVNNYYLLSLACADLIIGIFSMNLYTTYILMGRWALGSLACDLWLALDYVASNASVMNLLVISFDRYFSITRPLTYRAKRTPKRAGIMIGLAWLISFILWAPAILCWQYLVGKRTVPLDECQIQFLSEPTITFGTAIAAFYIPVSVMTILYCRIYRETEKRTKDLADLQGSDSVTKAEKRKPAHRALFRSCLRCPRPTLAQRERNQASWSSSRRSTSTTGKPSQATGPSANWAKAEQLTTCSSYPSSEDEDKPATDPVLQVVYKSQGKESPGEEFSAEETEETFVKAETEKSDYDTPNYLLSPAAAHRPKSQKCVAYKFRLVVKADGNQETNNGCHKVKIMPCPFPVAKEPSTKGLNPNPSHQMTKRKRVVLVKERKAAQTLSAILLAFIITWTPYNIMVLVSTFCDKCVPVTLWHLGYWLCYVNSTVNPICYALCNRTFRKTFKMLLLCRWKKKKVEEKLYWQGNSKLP
Chain of BMP-2-inducible protein kinase (Homo sapiens) (Q9NSY1 whole entry, looked up): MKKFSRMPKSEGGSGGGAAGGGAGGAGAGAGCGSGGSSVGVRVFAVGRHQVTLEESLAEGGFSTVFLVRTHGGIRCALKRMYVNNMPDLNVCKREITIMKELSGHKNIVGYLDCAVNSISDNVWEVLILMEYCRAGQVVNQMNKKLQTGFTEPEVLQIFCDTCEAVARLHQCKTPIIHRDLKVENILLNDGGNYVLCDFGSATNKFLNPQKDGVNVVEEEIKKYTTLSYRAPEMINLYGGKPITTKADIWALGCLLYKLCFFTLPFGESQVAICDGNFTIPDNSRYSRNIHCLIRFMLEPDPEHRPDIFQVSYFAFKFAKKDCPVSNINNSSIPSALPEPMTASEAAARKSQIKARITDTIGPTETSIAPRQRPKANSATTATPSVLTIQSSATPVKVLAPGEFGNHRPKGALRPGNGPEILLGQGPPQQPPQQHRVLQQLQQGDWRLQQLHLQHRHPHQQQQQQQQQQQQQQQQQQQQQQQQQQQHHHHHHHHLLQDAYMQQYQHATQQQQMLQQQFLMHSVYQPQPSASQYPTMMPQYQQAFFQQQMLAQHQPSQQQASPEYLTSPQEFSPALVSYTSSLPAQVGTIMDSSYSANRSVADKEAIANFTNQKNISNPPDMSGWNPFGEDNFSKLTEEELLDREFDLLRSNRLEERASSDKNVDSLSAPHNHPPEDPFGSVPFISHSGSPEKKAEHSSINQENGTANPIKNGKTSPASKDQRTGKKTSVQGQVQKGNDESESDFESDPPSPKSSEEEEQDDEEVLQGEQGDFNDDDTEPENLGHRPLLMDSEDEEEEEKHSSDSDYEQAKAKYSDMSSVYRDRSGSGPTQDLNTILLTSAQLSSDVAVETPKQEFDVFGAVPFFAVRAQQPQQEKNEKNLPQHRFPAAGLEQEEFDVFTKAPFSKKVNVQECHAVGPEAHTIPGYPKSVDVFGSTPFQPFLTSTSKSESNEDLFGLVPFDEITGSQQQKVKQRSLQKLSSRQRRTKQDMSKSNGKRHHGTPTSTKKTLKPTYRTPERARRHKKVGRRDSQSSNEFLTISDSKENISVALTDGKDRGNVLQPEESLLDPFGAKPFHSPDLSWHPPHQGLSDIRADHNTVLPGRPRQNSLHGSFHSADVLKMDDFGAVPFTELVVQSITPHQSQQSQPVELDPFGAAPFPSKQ
Chain of Mitogen-activated protein kinase 4 (Homo sapiens) (P31152 whole entry): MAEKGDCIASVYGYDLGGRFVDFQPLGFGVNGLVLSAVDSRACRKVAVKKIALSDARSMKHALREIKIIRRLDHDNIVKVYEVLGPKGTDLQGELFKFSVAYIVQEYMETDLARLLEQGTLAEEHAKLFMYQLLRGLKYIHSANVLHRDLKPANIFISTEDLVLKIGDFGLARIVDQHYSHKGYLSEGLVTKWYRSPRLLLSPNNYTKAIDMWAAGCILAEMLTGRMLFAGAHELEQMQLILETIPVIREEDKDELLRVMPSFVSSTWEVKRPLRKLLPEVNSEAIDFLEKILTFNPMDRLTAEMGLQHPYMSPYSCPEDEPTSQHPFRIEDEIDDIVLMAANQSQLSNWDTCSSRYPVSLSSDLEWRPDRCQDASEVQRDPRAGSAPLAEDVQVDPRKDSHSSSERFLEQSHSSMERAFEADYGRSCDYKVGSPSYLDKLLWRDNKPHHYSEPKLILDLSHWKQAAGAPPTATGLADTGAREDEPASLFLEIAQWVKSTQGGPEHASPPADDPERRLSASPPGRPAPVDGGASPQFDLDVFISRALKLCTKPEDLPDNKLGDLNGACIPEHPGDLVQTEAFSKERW
Chain of Serine/threonine-protein kinase TAO3 (Homo sapiens) (Q9H2K8 whole entry): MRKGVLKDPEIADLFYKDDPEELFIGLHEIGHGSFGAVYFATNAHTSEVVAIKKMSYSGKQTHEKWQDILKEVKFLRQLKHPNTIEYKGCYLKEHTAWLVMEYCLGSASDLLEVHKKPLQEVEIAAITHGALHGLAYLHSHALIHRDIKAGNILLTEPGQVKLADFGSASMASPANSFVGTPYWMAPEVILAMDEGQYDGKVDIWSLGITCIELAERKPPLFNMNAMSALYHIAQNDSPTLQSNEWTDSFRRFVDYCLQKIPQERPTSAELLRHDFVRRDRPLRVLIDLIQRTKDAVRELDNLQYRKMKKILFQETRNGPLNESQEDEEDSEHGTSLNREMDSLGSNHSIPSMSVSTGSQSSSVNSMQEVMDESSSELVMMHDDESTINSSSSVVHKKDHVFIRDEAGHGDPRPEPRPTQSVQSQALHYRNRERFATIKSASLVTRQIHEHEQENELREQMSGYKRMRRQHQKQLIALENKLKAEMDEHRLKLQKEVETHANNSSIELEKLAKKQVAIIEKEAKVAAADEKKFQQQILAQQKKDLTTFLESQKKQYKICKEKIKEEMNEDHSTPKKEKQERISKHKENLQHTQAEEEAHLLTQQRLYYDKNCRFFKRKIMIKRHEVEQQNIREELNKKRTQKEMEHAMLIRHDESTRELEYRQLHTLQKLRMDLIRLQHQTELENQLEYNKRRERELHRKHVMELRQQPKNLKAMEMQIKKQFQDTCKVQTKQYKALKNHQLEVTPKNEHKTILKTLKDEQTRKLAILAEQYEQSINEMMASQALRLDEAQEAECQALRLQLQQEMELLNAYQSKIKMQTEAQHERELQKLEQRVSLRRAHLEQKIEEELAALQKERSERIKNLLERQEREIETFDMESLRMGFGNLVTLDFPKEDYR
Chain of Calcium/calmodulin-dependent protein kinase type 1B (Homo sapiens) (Q6P2M8 whole entry): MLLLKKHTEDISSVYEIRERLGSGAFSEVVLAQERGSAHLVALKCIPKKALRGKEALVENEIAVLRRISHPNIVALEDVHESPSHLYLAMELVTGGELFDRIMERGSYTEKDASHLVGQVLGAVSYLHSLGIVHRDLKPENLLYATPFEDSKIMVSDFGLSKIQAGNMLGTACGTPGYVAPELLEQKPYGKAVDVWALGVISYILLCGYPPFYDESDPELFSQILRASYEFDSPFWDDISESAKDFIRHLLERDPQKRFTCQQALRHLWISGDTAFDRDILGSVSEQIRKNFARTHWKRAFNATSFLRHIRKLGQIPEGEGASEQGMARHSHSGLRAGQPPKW

CCOC(=O)c1cc2cc(-c3cc(C(=O)NCc4ccc(C(=O)O)cc4)nn3C)ccc2[nH]1 [BI 4394] was tested. Which residual activity [1] did it give?
The residual activity was 73%.

And the residual activity [2]?
Its residual activity is 81%.

And the residual activity [3]?
The residual activity was 100%.

And the residual activity [4]?
The residual activity was 85%.

What about the residual activity [5] of the same molecule?
The residual activity was 100%.

What about the residual activity [6] of the same molecule?
Its residual activity is 86%.

What about the residual activity [7] of the same molecule?
Its residual activity is 80%.

What about the residual activity [8] of the same molecule?
Its residual activity is 84%.

What about the residual activity [9] of the same molecule?
The residual activity was 78%.

And the residual activity [10]?
The residual activity was 89%.

What about the residual activity [11] of the same molecule?
Its residual activity is 99%.

And the residual activity [12]?
The residual activity was 100%.

And the residual activity [13]?
Its residual activity is 100%.

What about the inhibition [14] of the same molecule?
Its inhibition is 2.74%.

What about the residual activity [15] of the same molecule?
Its residual activity is 100%.

What about the residual activity [16] of the same molecule?
Its residual activity is 95%.

What about the residual activity [17] of the same molecule?
The residual activity was 77%.

And the inhibition [18]?
The inhibition was 16.4%.

And the residual activity [19]?
The residual activity was 94%.

And the residual activity [20]?
The residual activity was 92%.

And the residual activity [21]?
The residual activity was 97%.

What about the residual activity [22] of the same molecule?
The residual activity was 90%.

What about the residual activity [23] of the same molecule?
The residual activity was 90%.

And the residual activity [24]?
The residual activity was 82%.

What about the residual activity [25] of the same molecule?
Its residual activity is 93%.

What about the residual activity [26] of the same molecule?
Its residual activity is 90%.

And the inhibition [27]?
Its inhibition is 7.64%.

What about the residual activity [28] of the same molecule?
The residual activity was 100%.

What about the residual activity [29] of the same molecule?
The residual activity was 97%.

And the residual activity [30]?
Its residual activity is 90%.

And the residual activity [31]?
The residual activity was 93%.

What about the residual activity [32] of the same molecule?
Its residual activity is 84%.

What about the residual activity [33] of the same molecule?
Its residual activity is 91%.

And the residual activity [34]?
Its residual activity is 91%.

And the residual activity [35]?
Its residual activity is 99%.

And the residual activity [36]?
Its residual activity is 92%.

What about the residual activity [37] of the same molecule?
Its residual activity is 88%.

What about the residual activity [38] of the same molecule?
The residual activity was 100%.

And the residual activity [39]?
The residual activity was 66%.

What about the residual activity [40] of the same molecule?
Its residual activity is 97%.

What about the residual activity [41] of the same molecule?
The residual activity was 75%.

And the residual activity [42]?
Its residual activity is 100%.

What about the residual activity [43] of the same molecule?
Its residual activity is 68%.

What about the inhibition [44] of the same molecule?
Its inhibition is 9.64%.

What about the residual activity [45] of the same molecule?
Its residual activity is 78%.

Which results are given for Cn1nc(C(=O)NCc2ccc(C(=O)O)cc2)cc1-c1ccc2[nH]ccc2c1 [BI 4395]?
residual activity [1]: 96%; residual activity [2]: 65%; residual activity [3]: 100%; residual activity [4]: 83%; residual activity [5]: 92%; residual activity [6]: 89%; residual activity [7]: 93%; residual activity [8]: 97%; residual activity [9]: 93%; residual activity [10]: 97%; residual activity [11]: 45%; residual activity [12]: 91%; residual activity [13]: 90%; inhibition [14]: 1.67%; residual activity [15]: 83%; residual activity [16]: 90%; residual activity [17]: 100%; inhibition [18]: 6%; residual activity [19]: 95%; residual activity [20]: 89%; residual activity [21]: 95%; residual activity [22]: 100%; residual activity [23]: 91%; residual activity [24]: 63%; residual activity [25]: 100%; residual activity [26]: 82%; inhibition [27]: -7.43%; residual activity [28]: 82%; residual activity [29]: 100%; residual activity [30]: 75%; residual activity [31]: 81%; residual activity [32]: 77%; residual activity [33]: 76%; residual activity [34]: 100%; residual activity [35]: 96%; residual activity [36]: 71%; residual activity [37]: 87%; residual activity [38]: 93%; residual activity [39]: 100%; residual activity [40]: 74%; residual activity [41]: 93%; residual activity [42]: 89%; residual activity [43]: 100%; inhibition [44]: 8.74%; residual activity [45]: 98%
